Reference: patent US20170333391A1, “METHOD FOR DELAYING THE ONSET OF PULMONARY FIBROSIS OR TREATING PULMONARY FIBROSIS” (EVERFRONT BIOTECH INC., priority 2016, published 2017)

Tests used:
TGF-β protein [1] = test: TGF-β protein expression in transfected NHLF (pcDNA3.1 empty vector or pcDNA3.1-SOX2), western blotting (2-3); assay type: cell-based, human; settings: TGF-β1 5 ng/ml 12 h
Method: The pcDNA3.1 empty vector and the pcDNA3.1-SOX2 plasmid (i.e., pcDNA3.1 vector containing SOX2 gene) were respectively transfected into Normal Human lung fibroblasts (NHLF) by the Fugene HD cell transfection reagent. The cells were screened to obtain NHLFs containing the pcDNA3.1 empty vector or the pcDNA3.1-SOX2 plasmid.
NHLFs containing the pcDNA3.1 empty vector were then seeded into 6 cm culture dishes at a density of 2×10^5 cells/dish, comprising a control group and three experimental groups (4 dishes in total). The cells were cultured until the next day, and then the mediums were removed. Each group was respectively treated under the following conditions to conduct follow-up experiments: • (1) Control group I: cells were cultured in a FGM-2 medium containing 1% serum for 36 hours; • (2) Group A: cells were cultured in a FGM-2 medium containing 1% serum and TGF-β1 (5 ng/ml) for 36 hours; • (3) Group B: cells were firstly cultured in a FGM-2 medium containing 1% serum and TGF-β1 (5 ng/ml) for 12 hours, and then compound (1) was added into the medium to provide a final concentration of 15 μg/ml; thereafter, the cells were cultured for another 24 hours; and • (4) Group C: cells were firstly cultured in a FGM-2 medium containing 1% serum and TGF-β1 (5 ng/ml) for 12 hours, and then compound (1) was added into the medium to provide a final concentration of 30 μg/ml; thereafter, the cells were cultured for another 24 hours.
In another aspect, NHLFs containing the pcDNA3.1-SOX2 plasmid were seeded into the 6 cm culture dishes at a density of 2×10^5 cells/dish, comprising a control group and three experimental groups (4 dishes in total). The cells were cultured until the next day, and then the mediums were removed. Each group was respectively treated under the following conditions to conduct follow-up experiments: • (1) Control group II: cells were cultured in a FGM-2 medium containing 1% serum for 36 hours; • (2) Group D: cells were cultured in a FGM-2 medium containing 1% serum and TGF-β1 (5 ng/ml) for 36 hours; • (3) Group E: cells were firstly cultured in a FGM-2 medium containing 1% serum and TGF-β1 (5 ng/ml) for 12 hours, and then the compound (1) was added into the medium to provide a final concentration of 15 μg/ml; thereafter, the cells were cultured for another 24 hours; and • (4) Group F: cells were firstly cultured in a FGM-2 medium containing 1% serum and TGF-β1 (5 ng/ml) for 12 hours, and then the compound (1) was added into the medium to provide a final concentration of 30 μg/ml; thereafter, the cells were cultured for another 24 hours.
Thereafter, the proteins in the cells of each group were extracted, and the expressions of Sox2 protein, TGF-β protein and type I collagen in the NHLF cells of each group were measured with western blotting. […]

TGF-β protein [2] = test: TGF-β protein in mouse pulmonary tissue, western blotting; assay type: in vivo, mice; settings: compared to oil group
Method: (§1) 24 C57B/L6 mice (age: four weeks) were separated into four groups (6 mice in each group). […]
(§2) The samples of mice pulmonary tissue provided by Example 7 and preserved at −20° C. were removed from storage, and then ground in liquid nitrogen. […] The expressions of TGF-β protein, smad3 protein and surfactant C in the samples of each group were measured with western blotting, wherein the actin served as an internal control.

smad3 protein = smad3 protein in mouse pulmonary tissue, western blotting; assay type: in vivo, mice; settings: compared to oil group
Method: as §1, §2

IL-6 = IL-6 mRNA in mouse pulmonary tissue, RT-PCR; assay type: in vivo, mice; settings: Bleomycin sulfate, normal control = 1, oil group = 3.26
Description: as §1
Then, for another portion of ground samples of each group, the total RNAs were extracted using an RNeasy Mini Kit. The QuantiTect Reverse Transcription Kit was used to conduct reverse transcription on the total RNA to obtain the cDNA. […]

[3] = High-dose group, compound (1) 50 mg/kg orally daily 30 days
[4] = Low-dose group, compound (1) 10 mg/kg orally daily 30 days

## CCCC=C1OC(=O)c2ccccc21 [compound (1)]
TGF-β protein [1]; Group B: NHLF with pcDNA3.1 empty vector, then compound (1) 15 μg/ml 24 h, control group I = 1, TGF-β1-only group A = 0.84
  Relative expression level (fold) TGF-β protein: 0.89 fold
TGF-β protein [1]; Group C: NHLF with pcDNA3.1 empty vector, then compound (1) 30 μg/ml 24 h, control group I = 1, TGF-β1-only group A = 0.84
  Relative expression level (fold) TGF-β protein: 0.69 fold
TGF-β protein [1]; Group E: NHLF with pcDNA3.1-SOX2 plasmid, then compound (1) 15 μg/ml 24 h, control group II = 1, TGF-β1-only group D = 0.86
  Relative expression level (fold) TGF-β protein: 0.83 fold
TGF-β protein [1]; Group F: NHLF with pcDNA3.1-SOX2 plasmid, then compound (1) 30 μg/ml 24 h, control group II = 1, TGF-β1-only group D = 0.86
  Relative expression level (fold) TGF-β protein: 0.71 fold
TGF-β protein [2]; [3]
  expression level of TGF-β protein in pulmonary tissue: significantly lower
TGF-β protein [2]; [4]
  expression level of TGF-β protein in pulmonary tissue: significantly lower
smad3 protein; [3]
  expression level of smad3 protein in pulmonary tissue: significantly lower
smad3 protein; [4]
  expression level of smad3 protein in pulmonary tissue: significantly lower
IL-6; High-dose group: mRNA in pulmonary tissue, compound (1) 50 mg/kg-body weight orally every day for 30 days
  Relative expression level (fold) IL-6: 0.53 fold
IL-6; Low-dose group: mRNA in pulmonary tissue, compound (1) 10 mg/kg-body weight orally every day for 30 days
  Relative expression level (fold) IL-6: 1.36 fold
